In US20160220582A1, “COMBINATION OF LUPEOL ACETATE AND CURCUMIN USED FOR THE TREATMENT OR PREVENTION OF ACTIVATED OSTEOCLAST PRECURSOR ASSOCIATED DISORDERS” (priority 2015, published 2016):

Experiments:
[1] = Body weight tracking in CIA mice; type: in vivo
Method: Eight-week-old DBA/1J mice (purchased from Jackson lab, ME, USA and housed in the Animal center of National Yang Ming University under pathogen-free conditions according to the Institutional Animal Care and Committee guidelines) were used. 100 μl of arthritis-inducing adjuvant (prepared by mixing Complete Freund's Adjuvant (5 mg/ml heat-killed M. tuberculosis in incomplete Freund's Adjuvant) (Chondrex, WA, USA) with equal volume of bovine type II collagen (2 mg/ml solution in 0.05 M acetic acid) (Chondrex, WA, USA)) is injected into the dermis of tail (intra-dermal, i.d.) using a 30 G syringe; and a 50 μl second dose of same ingredients is injected in the same way at an interval of 21 days. The symptoms are produced at about six days after the second dose injection, with an induction rate of 100%. The CIA mice were established and treated with LA 25 mg/kg alone, LA 50 mg/kg alone, Cur 50 mg/kg alone and LA 25 mg/kg+Cur 50 mg/kg after second immunization once per day. Using animals treated with deionized distilled water (ddH2O) containing 0.1% dimethyl sulfoxide (DMSO, Sigma, USA) as the normal mice group. Signs of arthritis were monitored until Day 43.

[2] = tested on: collagen-induced arthritis (CIA) mice; experiment: Histopathology of joints (H & E stain) in CIA mice; type: in vivo, DBA/1J mice; conditions: day 43
Excerpt: To investigate the therapeutic efficacy of LA combined with curcumin on the histological damage in CIA mice, the mice were scarified on day 43 after arthritis induction. The joints of four limb of each mouse were excised and fixed with paraformaldehyde then embedded by paraffin and sectioned. Slides were stained with haematoxylin and eosin (H & E), and were observed under microscope.

[3] = tested on: collagen-induced arthritis (CIA) mice; experiment: 18F-FDG PET of joints in CIA mice; type: in vivo, DBA/1J mice
Excerpt: Apart from blood analysis, current clinical diagnosis will also use X-ray as an evaluation basis. Since X-ray image can only diagnose rheumatoid arthritis when the bone has been damaged severely at late stage, it could not be an effective evaluation tool. ^18F-FDG can be used as a tracer to observe and evaluate its accumulation during rheumatoid arthritis.
Repeated ^18F-FDG PET in vivo determination of disease severity in knee joints and paws on 20, 25, 32, 39 and 43 days after arthritis induction. Mice were anesthetized using 1-3% isoflurane and were intravenous injected with 0.5 mCi/100 μl (18.5 MBq) of ^18F-FDG 40 min before images acquisition. The emission scans were performed using an animal micro/PET scan (Tri-Modality FLEX Triumph™ Pre-Clinical Imaging System). All images were acquired for 40 min and reconstructed by software supplied by the manufacturer. The ROIs were selected, and the accumulation of ^18F-FDG of each ROI was further analyzed by Amide software.

arthritis = conditions: mice; cited from earlier work
[4] = tested on: collagen-induced arthritis (CIA) mice; experiment: Micro-CT bone density of femur in CIA mice; type: in vivo, DBA/1J mice; conditions: day 32, 39 and 43
Method: Micro-CT images were acquired from the Tri-Modality FLEX Triumph™ Pre-Clinical Imaging System (Gamma MedicaIdeas; Northridge, Calif.). The ROI was analyzed visually in three different slices: transverse, coronal, and sagittal. Individual ROI was used to create 3D representations of the bones of interest. For each specific bone ROI, the total number of pixels and mean pixel intensity across all slices were used to measure bone volume and density.

[5] = clinical application; cited from earlier work
RAW 264.7 cells = experiment: MTT cell viability assay; conditions: RAW264.7, 24 h; LA 10-80 μM, Cur 2.5-10 μM, 10 μM Cur+10-80 μM LA
Method: RAW 264.7 cells (a mouse macrophage cell line) were treated with different concentrations of lupeol acetate (10, 20, 40, 80 μM), curcumin (2.5, 5, 7.5, 10 μM) and combination (10 μM Cur+10 μM LA, 10 μM Cur+20 μM LA, 10 μM Cur+40 μM LA, 10 μM Cur+80 μM LA) for 24 h.
5×10^4 RAW264.7 cells/well were seeded in 96-well culture dishes, and treated with directed concentration of lupeol acetate (LA), curcumin (Cur) and combination for 24 hours after the 24-hr attachment. After removing the culture medium, 100 μl of 0.5 mg/ml MTT solution was added, and the cells were incubated at 37° C. for 4 hours. The mitochondrial enzyme (succinate dehydrogenase, SDH) in living cells will react with tetrazolium bromide in the MTT solution and form formazan blue-purple crystals. The MTT solution was removed and 200 μl DMSO was added to dissolve the blue-purple crystal, and then the O.D. (optical density) value was read under wavelength of 570 nm with an ELISA reader (TECAN Sunrise, USA). The relative cell viability is calculated by comparing the absorbance value of drug treated group with that of the control group (setting the value of control group as 100%).

[6] = tested on: inflammatory condition induced by carrageenan; conditions: mice; Lucetti et al. 2010; cited from earlier work
[7] = tested on: collagen-induced arthritis (CIA) mice; experiment: Ex vivo Western blotting of leg proteins of CIA mice; type: in vivo, DBA/1J mice; conditions: day 32
Method: The mice were sacrificed by cervical dislocation on the 32nd day of the animal experiment. The whole leg of mouse was removed, and the leg tissue was ground by adding an appropriate amount of lysis buffer (tissue protein extraction reagent, T-PER, Pierce Protein Biology Products, IL, USA), centrifuged at 15,000 rpm for 20 minutes, and the supernatant is taken as the sample for each group.
Mice were sacrificed at the peak of arthritis (on day 32), the protein extraction was isolated from legs of each group.

NF-κB = experiment: Ex vivo electrophoretic mobility shift assay (EMSA); type: in vivo, DBA/1J mice
Method: The LightShift Chemiluminescent EMSA kit (Pierce, Rockford, Ill., USA) was used in the analysis for NF-κB/DNA binding activity. Nuclear extracts were incubated with the biotin labeled DNA probes at room temperature for 20 minutes. The separated DNA/protein complexes from the free oligonucleotide on 10% polyacrylamide gel were transferred to a nylon membrane. The nylon membrane was immersed in ECL (Pierce, Rockford, Ill., USA) and reacted to emit cold light (luminescence), and then exposed to the film for the observation of NF-κB activity. Using IMAGE J software (National Institutes of Health), the obtained images were quantified to blackening degree; the blackening degree of the protein to be observed is divided by the value obtained in the control group to compare the differences of each group in the expression level of nuclear proteins.

rheumatoid arthritis = conditions: mice; high doses (100 mg/kg, 12 days) necessary; US 20120177754; cited from earlier work

| Molecule | tolerability / general toxicity ([1]; mouse, in vivo) | histopathology of joints: immune cell infiltration and cartilage destruction ([2]; 50 mg/kg) | 18F-FDG accumulation in knee and tarsal joint / leg swelling ([3]; 50 mg/kg alone) | occurrence of inflammation and progression of arthritis (arthritis) | bone density of femur vs CIA mice [4] | bioavailability [5] | tolerability / general toxicity ([1]; CIA mice, throughout the experimental period) | histopathology of joints: immune cell infiltration and cartilage destruction ([2]; 25 mg/kg) | 18F-FDG accumulation in knee and tarsal joint / leg swelling ([3]; 25 mg/kg alone) | cytotoxic effects, cell viability (MTT) (RAW 264.7 cells) | inflammatory condition induced by carrageenan [6] | arthritis-related proteins ([7]; LA25 (25 mg/kg)) | arthritis-related proteins ([7]; LA50 (50 mg/kg)) | activation of NF-κB (NF-κB; LA25 (25 mg/kg)) | activation of NF-κB (NF-κB; LA50 (50 mg/kg)) | inhibiting inflammation and treatment of rheumatoid arthritis (rheumatoid arthritis) |
| --- | --- | --- | --- | --- | --- | --- | --- | --- | --- | --- | --- | --- | --- | --- | --- | --- |
| COc1cc(/C=C/C(=O)CC(=O)/C=C/c2ccc(O)c(OC)c2)ccc1O [Cur, curcumin] | well-tolerated | moderate immune cell infiltration and cartilage destruction | still have leg swelling on one side | inhibit | significantly higher | poor bioavailability |  |  |  |  |  |  |  |  |  |  |
| lupeol acetate [LA] |  | no inflammation and cartilage destruction |  |  | significantly higher |  | well-tolerated | moderate immune cell infiltration and cartilage destruction | still have leg swelling on one side | no cytotoxic effects | effectively mitigate | improvement | improvement | significantly suppressed | significantly suppressed | significant therapeutic effect |
